# Measured values published in the supplement of paper PMC10307832.
# Experiments:
# Assay in all cases: relative viability (nuclei count vs DMSO), 5 days (fraction); higher = more cells survive
# [1] = system: NCI-H1944
# Outline: (§1)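 Relative viability divides the nuclei count in treated wells by that in vehicle wells. Lung cancer cell lines were seeded in 1536-well plates, dosed by pin tool the next day, and fixed and stained after 5 days in one step with final 0.05% Triton X-100, 1% formaldehyde and 1 ug/ml Hoechst. Dosing was a single drug or a fixed anchor-drug dose plus five library-drug doses (not always all listed) in √10 steps, and values are medians of duplicate plates imaged at 4×.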
# [2] = system: NCI-H2170
# Outline: as §1
# [3] = system: NCI-H1793
# Outline: as §1
# [4] = system: LXF-289
# Outline: as §1
# [5] = system: UMC-11
# Outline: as §1
# [6] = system: NCI-H1666
# Outline: as §1
# [7] = system: HCC-366
# Outline: as §1
# [8] = system: A-427
# Outline: as §1
# [9] = system: SK-LU-1
# Outline: as §1
# [10] = system: LC-2-ad
# Outline: as §1
# [11] = system: LU99A
# Outline: as §1
# [12] = system: NCI-H1915
# Outline: as §1
# [13] = system: NCI-H358
# Outline: as §1
# [14] = system: EPLC-272H
# Outline: as §1
# [15] = system: NCI-H460
# Outline: as §1
# [16] = system: COR-L 105
# Outline: as §1
# [17] = system: HCC-78
# Outline: as §1
# [18] = system: HOP-62
# Outline: as §1
# [19] = system: SW 900
# Outline: as §1
# [20] = system: NCI-H2009
# Outline: as §1
# [21] = system: NCI-H1792
# Outline: as §1
# [22] = system: NCI-H2085
# Outline: as §1
structure (smiles),measurement,setting,value
COc1nc(C)cnc1NS(=O)(=O)c1cccnc1-c1ccc(-c2nnco2)cc1 [Zibotentan] + O=C(c1cc(Cc2n[nH]c(=O)c3ccccc23)ccc1F)N1CCN(C(=O)C2CC2)CC1 [Olaparib] (partner 8 µM),relative viability,[1]; first compound 0.08 µM,0.417
same,relative viability,[1]; first compound 0.253 µM,0.369
same,relative viability,[1]; first compound 0.8 µM,0.392
same,relative viability,[1]; first compound 2.53 µM,0.406
same,relative viability,[2]; first compound 0.08 µM,0.571
same,relative viability,[2]; first compound 0.253 µM,0.648
same,relative viability,[2]; first compound 0.8 µM,0.522
same,relative viability,[2]; first compound 2.53 µM,0.568
same,relative viability,[3]; first compound 0.08 µM,0.998
same,relative viability,[3]; first compound 0.253 µM,0.835
same,relative viability,[3]; first compound 0.8 µM,0.796
same,relative viability,[3]; first compound 2.53 µM,0.957
same,relative viability,[4]; first compound 0.08 µM,1.01
same,relative viability,[4]; first compound 0.253 µM,1
same,relative viability,[4]; first compound 0.8 µM,1.14
same,relative viability,[4]; first compound 2.53 µM,1.09
same,relative viability,[5]; first compound 0.08 µM,0.321
same,relative viability,[5]; first compound 0.253 µM,0.409
same,relative viability,[5]; first compound 0.8 µM,0.44
same,relative viability,[5]; first compound 2.53 µM,0.438
same,relative viability,[6]; first compound 0.08 µM,0.753
same,relative viability,[6]; first compound 0.253 µM,0.726
same,relative viability,[6]; first compound 0.8 µM,0.765
same,relative viability,[6]; first compound 2.53 µM,0.728
same,relative viability,[7]; first compound 0.08 µM,0.396
same,relative viability,[7]; first compound 0.253 µM,0.34
same,relative viability,[7]; first compound 0.8 µM,0.342
same,relative viability,[7]; first compound 2.53 µM,0.365
same,relative viability,[8]; first compound 0.08 µM,0.755
same,relative viability,[8]; first compound 0.253 µM,0.704
same,relative viability,[8]; first compound 0.8 µM,0.64
same,relative viability,[8]; first compound 2.53 µM,0.799
same,relative viability,[9]; first compound 0.08 µM,0.507
same,relative viability,[9]; first compound 0.253 µM,0.477
same,relative viability,[9]; first compound 0.8 µM,0.579
same,relative viability,[9]; first compound 2.53 µM,0.615
same,relative viability,[10]; first compound 0.08 µM,0.68
same,relative viability,[10]; first compound 0.253 µM,0.682
same,relative viability,[10]; first compound 0.8 µM,0.721
same,relative viability,[10]; first compound 2.53 µM,0.71
same,relative viability,[11]; first compound 0.08 µM,0.269
same,relative viability,[11]; first compound 0.253 µM,0.259
same,relative viability,[11]; first compound 0.8 µM,0.181
same,relative viability,[11]; first compound 2.53 µM,0.255
same,relative viability,[12]; first compound 0.08 µM,0.31
same,relative viability,[12]; first compound 0.253 µM,0.277
same,relative viability,[12]; first compound 0.8 µM,0.254
same,relative viability,[12]; first compound 2.53 µM,0.24
same,relative viability,[13]; first compound 0.08 µM,0.735
same,relative viability,[13]; first compound 0.253 µM,0.323
same,relative viability,[13]; first compound 2.53 µM,0.689
same,relative viability,[14]; first compound 0.253 µM,0.732
same,relative viability,[14]; first compound 0.8 µM,0.991
same,relative viability,[14]; first compound 2.53 µM,0.754
same,relative viability,[15]; first compound 0.08 µM,0.42
same,relative viability,[15]; first compound 0.253 µM,0.346
same,relative viability,[15]; first compound 0.8 µM,0.322
same,relative viability,[15]; first compound 2.53 µM,0.481
same,relative viability,[16]; first compound 0.08 µM,0.68
same,relative viability,[16]; first compound 0.253 µM,0.605
same,relative viability,[16]; first compound 0.8 µM,0.721
same,relative viability,[16]; first compound 2.53 µM,0.784
same,relative viability,[17]; first compound 0.08 µM,0.949
same,relative viability,[17]; first compound 0.253 µM,0.748
same,relative viability,[17]; first compound 0.8 µM,0.719
same,relative viability,[17]; first compound 2.53 µM,0.736
same,relative viability,[18]; first compound 0.08 µM,0.429
same,relative viability,[18]; first compound 0.253 µM,0.34
same,relative viability,[18]; first compound 0.8 µM,0.503
same,relative viability,[18]; first compound 2.53 µM,0.502
same,relative viability,[19]; first compound 0.08 µM,0.922
same,relative viability,[19]; first compound 0.253 µM,0.647
same,relative viability,[19]; first compound 0.8 µM,0.853
same,relative viability,[19]; first compound 2.53 µM,0.81
same,relative viability,[20]; first compound 0.08 µM,0.688
same,relative viability,[20]; first compound 0.253 µM,0.589
same,relative viability,[20]; first compound 0.8 µM,0.671
same,relative viability,[20]; first compound 2.53 µM,0.787
same,relative viability,[21]; first compound 0.08 µM,0.235
same,relative viability,[21]; first compound 0.253 µM,0.408
same,relative viability,[21]; first compound 0.8 µM,0.323
same,relative viability,[21]; first compound 2.53 µM,0.373
same,relative viability,[22]; first compound 0.08 µM,0.742
same,relative viability,[22]; first compound 0.253 µM,0.734
same,relative viability,[22]; first compound 0.8 µM,0.856
same,relative viability,[22]; first compound 2.53 µM,0.801
CCN(CC)CCCCNc1ncc2cc(-c3cc(OC)cc(OC)c3)c(NC(=O)NC(C)(C)C)nc2n1 + N=C(N)NC(=N)NCCc1ccccc1 [Phenformin] (partner 250 µM),relative viability,[1]; first compound 0.01 µM,0.204
same,relative viability,[1]; first compound 0.03162 µM,0.195
same,relative viability,[1]; first compound 0.1 µM,0.194
same,relative viability,[1]; first compound 0.3162 µM,0.202
same,relative viability,[1]; first compound 1 µM,0.16
same,relative viability,[2]; first compound 0.01 µM,0.417
same,relative viability,[2]; first compound 0.03162 µM,0.416
same,relative viability,[2]; first compound 0.1 µM,0.414
same,relative viability,[2]; first compound 0.3162 µM,0.413
same,relative viability,[2]; first compound 1 µM,0.345
same,relative viability,[3]; first compound 0.01 µM,0.416
same,relative viability,[3]; first compound 0.03162 µM,0.427
same,relative viability,[3]; first compound 0.1 µM,0.353
same,relative viability,[3]; first compound 0.3162 µM,0.341
same,relative viability,[3]; first compound 1 µM,0.335
same,relative viability,[4]; first compound 0.01 µM,0.506
same,relative viability,[4]; first compound 0.03162 µM,0.542
same,relative viability,[4]; first compound 0.1 µM,0.547
same,relative viability,[4]; first compound 0.3162 µM,0.53
same,relative viability,[4]; first compound 1 µM,0.424
same,relative viability,[5]; first compound 0.01 µM,0.346
same,relative viability,[5]; first compound 0.03162 µM,0.353
same,relative viability,[5]; first compound 0.1 µM,0.371
same,relative viability,[5]; first compound 0.3162 µM,0.343
same,relative viability,[5]; first compound 1 µM,0.362
same,relative viability,[6]; first compound 0.01 µM,0.582
same,relative viability,[6]; first compound 0.03162 µM,0.562
same,relative viability,[6]; first compound 0.1 µM,0.574
same,relative viability,[6]; first compound 0.3162 µM,0.644
same,relative viability,[6]; first compound 1 µM,0.507
same,relative viability,[7]; first compound 0.01 µM,0.627
same,relative viability,[7]; first compound 0.03162 µM,0.666
same,relative viability,[7]; first compound 0.1 µM,0.65
same,relative viability,[7]; first compound 0.3162 µM,0.622
same,relative viability,[7]; first compound 1 µM,0.581
same,relative viability,[8]; first compound 0.01 µM,0.294
same,relative viability,[8]; first compound 0.03162 µM,0.273
same,relative viability,[8]; first compound 0.1 µM,0.289
same,relative viability,[8]; first compound 0.3162 µM,0.204
same,relative viability,[8]; first compound 1 µM,0.173
same,relative viability,[9]; first compound 0.01 µM,0.661
same,relative viability,[9]; first compound 0.03162 µM,0.551
same,relative viability,[9]; first compound 0.1 µM,0.681
same,relative viability,[9]; first compound 0.3162 µM,0.586
same,relative viability,[9]; first compound 1 µM,0.285
same,relative viability,[10]; first compound 0.01 µM,0.625
same,relative viability,[10]; first compound 0.03162 µM,0.55
same,relative viability,[10]; first compound 0.1 µM,0.586
same,relative viability,[10]; first compound 0.3162 µM,0.629
same,relative viability,[10]; first compound 1 µM,0.483
same,relative viability,[11]; first compound 0.01 µM,0.764
same,relative viability,[11]; first compound 0.03162 µM,0.841
same,relative viability,[11]; first compound 0.1 µM,1.04
same,relative viability,[11]; first compound 0.3162 µM,0.772
same,relative viability,[11]; first compound 1 µM,0.756
same,relative viability,[12]; first compound 0.01 µM,0.376
same,relative viability,[12]; first compound 0.03162 µM,0.377
same,relative viability,[12]; first compound 0.1 µM,0.365
same,relative viability,[12]; first compound 0.3162 µM,0.373
same,relative viability,[12]; first compound 1 µM,0.337
same,relative viability,[13]; first compound 0.01 µM,0.358
same,relative viability,[13]; first compound 0.03162 µM,0.302
same,relative viability,[13]; first compound 0.1 µM,0.358
same,relative viability,[13]; first compound 0.3162 µM,0.472
same,relative viability,[13]; first compound 1 µM,0.331
same,relative viability,[14]; first compound 0.01 µM,0.324
same,relative viability,[14]; first compound 0.03162 µM,0.3
same,relative viability,[14]; first compound 0.1 µM,0.236
same,relative viability,[14]; first compound 0.3162 µM,0.296
same,relative viability,[14]; first compound 1 µM,0.288
same,relative viability,[15]; first compound 0.01 µM,0.536
same,relative viability,[15]; first compound 0.03162 µM,0.567
same,relative viability,[15]; first compound 0.1 µM,0.53
same,relative viability,[15]; first compound 0.3162 µM,0.68
same,relative viability,[15]; first compound 1 µM,0.329
same,relative viability,[16]; first compound 0.01 µM,0.476
same,relative viability,[16]; first compound 0.03162 µM,0.521
same,relative viability,[16]; first compound 0.1 µM,0.47
same,relative viability,[16]; first compound 0.3162 µM,0.615
same,relative viability,[16]; first compound 1 µM,0.421
same,relative viability,[17]; first compound 0.01 µM,0.646
same,relative viability,[17]; first compound 0.03162 µM,0.732
same,relative viability,[17]; first compound 0.1 µM,0.663
same,relative viability,[17]; first compound 0.3162 µM,0.805
same,relative viability,[17]; first compound 1 µM,0.631
same,relative viability,[18]; first compound 0.01 µM,0.81
same,relative viability,[18]; first compound 0.03162 µM,0.847
same,relative viability,[18]; first compound 0.1 µM,0.604
same,relative viability,[18]; first compound 0.3162 µM,0.752
same,relative viability,[18]; first compound 1 µM,0.654
same,relative viability,[19]; first compound 0.01 µM,0.529
same,relative viability,[19]; first compound 0.03162 µM,0.678
same,relative viability,[19]; first compound 0.3162 µM,0.48
same,relative viability,[19]; first compound 1 µM,0.364
same,relative viability,[20]; first compound 0.01 µM,0.471
same,relative viability,[20]; first compound 0.03162 µM,0.462
same,relative viability,[20]; first compound 0.1 µM,0.451
same,relative viability,[20]; first compound 0.3162 µM,0.456
same,relative viability,[20]; first compound 1 µM,0.357
same,relative viability,[21]; first compound 0.01 µM,0.363
same,relative viability,[21]; first compound 0.03162 µM,0.43
same,relative viability,[21]; first compound 0.1 µM,0.312
same,relative viability,[21]; first compound 0.3162 µM,0.232
same,relative viability,[21]; first compound 1 µM,0.168
same,relative viability,[22]; first compound 0.01 µM,0.735
same,relative viability,[22]; first compound 0.03162 µM,0.661
same,relative viability,[22]; first compound 0.1 µM,0.76
same,relative viability,[22]; first compound 0.3162 µM,0.808
same,relative viability,[22]; first compound 1 µM,0.779
